Reference: patent publication US20120184517A1, “TREATMENT OF DISEASES WITH ALTERED SMOOTH MUSCLE CONTRACTILITY” (priority 2009, published 2012)
Entries after “also recorded” stand apart in the source; their conditions may differ.

Columns and labels:
PKCα = PKCα (Homo sapiens, UniProt P17252); conditions: rottlerin 20 μM, 0.1 mM ATP, phosphatidylserine; cited from earlier work
3T3-L1 adipocytes = conditions: read-out: IC50 of insulin-induced glucose uptake; cited from earlier work
OVA-sensitized mice = experiment: OVA-asthma model, single i.v. dose before airway resistance measurement; format: in vivo
Experimental: Groups of mice received an I.P. injection of OVA/Alum complex on days 0 and 7 and on alternate days 14-22, a 20 minute aerosol challenge of either PBS or 2% (w/v) OVA in PBS, using an ultrasonic nebulizer (FIG. 22A).

[1] = target: T1, BK currents in tracheal smooth muscle (Mus musculus, UniProt Q08460); experiment: Whole cell patch clamp of acutely isolated tracheal smooth muscle cells; format: cell-based, murine; design: unit of the concentration uncertain; conditions: rottlerin (1 (unit uncertain)), FIG. 11A
T1 construct: murine tracheal smooth muscle cells were acutely isolated and whole cell patch clamped; endogenous in cells; host or cells: acutely isolated murine tracheal smooth muscle cells
T1 sequence (Q08460 whole entry): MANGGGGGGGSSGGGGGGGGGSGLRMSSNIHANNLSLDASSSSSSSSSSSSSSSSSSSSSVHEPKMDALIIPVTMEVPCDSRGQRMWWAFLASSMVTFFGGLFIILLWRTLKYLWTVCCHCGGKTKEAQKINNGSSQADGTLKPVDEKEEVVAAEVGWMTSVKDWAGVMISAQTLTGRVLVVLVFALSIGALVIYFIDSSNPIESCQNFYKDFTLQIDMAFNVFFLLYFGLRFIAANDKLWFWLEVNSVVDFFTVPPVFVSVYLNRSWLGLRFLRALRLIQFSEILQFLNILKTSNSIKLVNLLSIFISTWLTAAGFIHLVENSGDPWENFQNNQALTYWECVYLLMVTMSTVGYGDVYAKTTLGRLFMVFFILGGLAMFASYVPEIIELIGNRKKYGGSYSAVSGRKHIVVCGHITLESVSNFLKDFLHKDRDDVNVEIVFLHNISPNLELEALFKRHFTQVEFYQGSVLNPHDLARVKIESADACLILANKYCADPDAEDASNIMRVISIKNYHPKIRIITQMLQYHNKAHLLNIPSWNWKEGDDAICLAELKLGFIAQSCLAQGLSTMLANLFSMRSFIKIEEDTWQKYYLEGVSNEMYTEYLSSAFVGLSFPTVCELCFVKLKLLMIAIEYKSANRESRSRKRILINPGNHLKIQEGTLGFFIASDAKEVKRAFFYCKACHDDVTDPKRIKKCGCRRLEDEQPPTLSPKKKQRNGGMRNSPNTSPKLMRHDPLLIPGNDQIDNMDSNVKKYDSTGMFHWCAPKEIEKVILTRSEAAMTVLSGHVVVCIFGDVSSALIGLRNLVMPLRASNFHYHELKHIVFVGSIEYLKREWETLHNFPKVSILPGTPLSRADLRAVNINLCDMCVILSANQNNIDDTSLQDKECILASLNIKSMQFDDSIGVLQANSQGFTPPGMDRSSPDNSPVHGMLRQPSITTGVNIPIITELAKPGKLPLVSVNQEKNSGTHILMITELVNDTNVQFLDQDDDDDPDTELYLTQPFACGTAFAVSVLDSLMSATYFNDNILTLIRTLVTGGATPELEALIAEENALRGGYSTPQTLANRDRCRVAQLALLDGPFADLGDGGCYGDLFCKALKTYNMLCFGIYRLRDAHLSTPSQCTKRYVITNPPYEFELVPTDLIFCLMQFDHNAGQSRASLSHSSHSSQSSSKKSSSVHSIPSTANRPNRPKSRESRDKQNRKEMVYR
T1 sequence (Q8CAE3 whole entry partner): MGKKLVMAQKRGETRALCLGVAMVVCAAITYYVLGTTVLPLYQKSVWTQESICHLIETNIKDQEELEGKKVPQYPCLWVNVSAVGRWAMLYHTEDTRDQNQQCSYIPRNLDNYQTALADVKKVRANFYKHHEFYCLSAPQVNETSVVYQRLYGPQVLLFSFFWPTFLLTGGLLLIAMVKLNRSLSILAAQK
Text: (§1) In this experiment, murine tracheal smooth muscle cells were acutely isolated and whole cell patch clamped as previously described (Zakharov, S. et al., (2005) J Biol Chem 280, 30882-30887).
Murine tracheal smooth muscle cells were isolated using the following protocol. Trachea were removed, cut longitudinally, the epithelium removed (brushing with sterile cotton bud) and the cartilage removed by cutting. The isolated trachea were dissected in culture medium and cut into several pieces (1-2 mm^2). After addition of 0.5 mg/ml papain (Roche, Nutley, N.J.) and 1 mg/ml dithiothreitol, the cells were dissociated at 37° C. for 20 minutes, gently shaking, followed by the addition of 0.1 mg/ml liberase enzyme 2 (Roche, Nutley, N.J.) for 30 minutes at 37° C. (5% CO2). The suspension was then pipetted gently several times to disburse cells, the cell suspension strained via a nylon cell strainer, and the suspension was gently triturated to disburse single cells. The cell suspension was then centrifuged at 700×g for 5 minutes and the pellet resuspended in 500 μl Krebs solution. The cells were plated onto laminin-coated tissue culture dishes. BK currents were recorded using whole-cell and outside-out macropatches.

WT tracheal rings = experiment: Isoproterenol-induced relaxation of WT tracheal rings on a myograph; format: cell-based, murine; conditions: rottlerin compared to PBS
Experimental: (n=4 each). Asterisk (*) indicates P<0.05 versus vehicle (DMSO). […] Cumulative dose-response curves of WT tracheal rings to isoproterenol in the absence and presence of 100 nM iberiotoxin (IbTX), a specific BK channel inhibitor. Values in graphs are means±standard deviation.
as §1
To dissect which (or both) β-AR pathways are responsible for the effects, tracheal rings were pre-incubated with either β1-AR antagonist (CGP 20712A; 100 nM) or a β2-AR antagonist (ICI 118551; 100 nM) or vehicle (DMSO). […] To confirm that the isoproterenol-induced relaxation was dependent upon BK channel-induced hyperpolarization, IbTX, a specific inhibitor of the BK channel, was used.

SMILES: CC(=O)c1c(O)c(C)c(O)c(Cc2c(O)c3c(c(C(=O)/C=C/c4ccccc4)c2O)OC(C)(C)C=C3)c1O [rottlerin, 5,7-dihydroxy-2,2-dimethyl-6-(2,4,6-trihydroxy-3-methyl-5-acetylbenzyl)-8-cinnamoyl-I,2-chromene]
- effect on PKCα activity (PKCα): virtually no effect
- IC50 (3T3-L1 adipocytes): 10 µM
- β-agonist mediated relaxation of the airway (OVA-sensitized mice; Rottlerin (5 μg/g) in combination with Isoproterenol (2.5 μg/g), tail vein): increased β-agonist mediated relaxation of the airway
- time to reduction of AHR (OVA-sensitized mice; single I.V. administration): ≤ 5 min
- airway resistance (RL) (OVA-sensitized mice; single dose 5 μg/g I.V. 5 minutes before measurement, OVA-sensitized mice): significant decrease in their RL; also recorded: significantly reduced airway resistance
- BK currents [1]: significantly activated
- ISO-induced relaxation (WT tracheal rings): enhanced the ISO-induced relaxation
